Like-named read-outs stand apart in the source and are kept apart here.
Assays:
[1] = system: reactive oxygen species; format: cell-based, mouse; details: for ROS (composite Z-score): normalized score vs mock-treated (DMSO) wells
[2] = system: C2C12 myotubes; details: for Viability (composite Z-score): normalized score vs mock-treated (DMSO) wells
[3] = system: cytochrome c; format: cell-based, mouse; details: for cyt c (composite Z-score): normalized score vs mock-treated (DMSO) wells
[4] = system: OXPHOS gene expression; format: cell-based, mouse; details: for GE-HTS (composite Z-score): normalized score vs mock-treated (DMSO) wells
[5] = system: nuOXPHOS transcripts; format: cell-based, mouse; details: for nucOX (composite Z-score): normalized score vs mock-treated (DMSO) wells
[6] = system: mtOXPHOS transcripts; format: cell-based, mouse; details: for mitoOX (composite Z-score): normalized score vs mock-treated (DMSO) wells
[7] = system: mitochondrial membrane potential; format: cell-based, mouse; details: for ΔΨm (composite Z-score): normalized score vs mock-treated (DMSO) wells
[8] = system: cellular dehydrogenase activity; details: for MTT (composite Z-score): normalized score vs mock-treated (DMSO) wells
[9] = composite Z-score vs DMSO wells, Conc 20 μM
[10] = composite Z-score vs DMSO, Conc 20 μM
[11] = Table 4, C2C12 myotubes, 48 h, composite Z-score
[12] = composite Z-score vs mock-treated (DMSO) wells, Conc 20 μM
[13] = normalized composite Z-score vs mock-treated (DMSO) wells, Conc 20 μM
[14] = 20 μM, composite Z-score vs DMSO

cytochrome c, sequence (P62897 whole entry): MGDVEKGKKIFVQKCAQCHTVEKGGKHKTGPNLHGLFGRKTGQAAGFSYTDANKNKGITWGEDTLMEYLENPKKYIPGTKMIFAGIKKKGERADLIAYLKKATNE

estrone hemisuccinate
ROS [1, 9]: 0.834 | Viability [2, 9]: −0.076 | cyt c [3, 9]: 0.250 | GE-HTS [4, 9]: 0.261 | nucOX [5, 9]: 0.370 | mitoOX [6, 9]: −0.003 | ΔΨm [7, 9]: −0.573 | MTT [8, 9]: −0.686

gentamicin sulfate
ROS [1, 10]: 0.369 | Viability [2, 10]: −0.804 | cyt c [3, 10]: −0.896 | GE-HTS [4, 10]: −0.117 | nucOX [5, 10]: −0.267 | mitoOX [6, 10]: 0.188 | ΔΨm [7, 10]: −1.213 | MTT [8, 10]: −0.150

ginkgolic acid
ROS [1, 10]: −0.116 | Viability [2, 10]: −0.686 | cyt c [3, 10]: 0.587 | GE-HTS [4, 10]: −0.062 | nucOX [5, 10]: −0.315 | mitoOX [6, 10]: 0.505 | ΔΨm [7, 10]: −0.905 | MTT [8, 10]: −0.461

isoduartin methyl ether [reference compound]
ROS (composite Z-score) ([1]; Conc 20 μM): 0.599 | ROS [1, 11]: 0.599 | Viability (composite Z-score) ([2]; Conc 20 μM): −0.603 | Viability [2, 11]: −0.603 | cyt c (composite Z-score) ([3]; Conc 20 μM): 0.882 | GE-HTS (composite Z-score) ([4]; Conc 20 μM): −0.182 | nucOX (composite Z-score) ([5]; Conc 20 μM): −0.008 | mitoOX (composite Z-score) ([6]; Conc 20 μM): −0.434 | ΔΨm (composite Z-score) ([7]; Conc 20 μM): −0.777 | ΔΨm ([7]; Table 4, C2C12 myotubes, 48 h, JC-1, composite Z-score): −0.777 | MTT (composite Z-score) ([8]; Conc 20 μM): −2.055 | MTT [8, 11]: −2.055

khayanthone
ROS [1, 12]: 0.015 | Viability [2, 12]: 1.156 | cyt c [3, 12]: −0.669 | GE-HTS [4, 12]: 1.491 | nucOX [5, 12]: 1.510 | mitoOX [6, 12]: 1.095 | ΔΨm [7, 12]: 0.962 | MTT [8, 12]: −0.382

mepartricin
ROS (composite Z-score) ([1]; Conc 20 μM): −0.251 | Viability (composite Z-score) ([2]; Conc 20 μM): −0.568 | cyt c (composite Z-score) ([3]; Conc 20 μM): 0.264 | GE-HTS (composite Z-score) ([4]; Conc 20 μM): −0.710 | nucOX (composite Z-score) ([5]; Conc 20 μM): −0.728 | mitoOX (composite Z-score) ([6]; Conc 20 μM): −0.464 | ΔΨm (composite Z-score) ([7]; Conc 20 μM): −0.309 | MTT (composite Z-score) ([8]; Conc 20 μM): −1.431

methyl 7-deshydroxypyrogallin-4-carboxylate
ROS [1, 13]: 0.145 | Viability [2, 13]: −0.873 | cyt c [3, 13]: 0.133 | GE-HTS [4, 13]: −1.502 | nucOX [5, 13]: −1.394 | mitoOX [6, 13]: −1.395 | ΔΨm [7, 13]: −1.695 | MTT [8, 13]: −1.261

methylorsellinic acid, ethyl ester
ROS [1, 13]: −0.293 | Viability [2, 13]: 0.459 | cyt c [3, 13]: 0.754 | GE-HTS [4, 13]: −0.990 | nucOX [5, 13]: −1.040 | mitoOX [6, 13]: −0.770 | ΔΨm [7, 13]: −0.478 | MTT [8, 13]: −0.661

muurolladie-3-one
ROS [1, 13]: −0.490 | Viability [2, 13]: −0.720 | cyt c [3, 13]: −0.234 | GE-HTS [4, 13]: −0.747 | nucOX [5, 13]: −0.745 | mitoOX [6, 13]: −0.569 | ΔΨm [7, 13]: 0.063 | MTT [8, 13]: −1.161

phytol
ROS [1, 13]: 0.940 | Viability [2, 13]: −0.520 | cyt c [3, 13]: 0.020 | GE-HTS [4, 13]: −0.177 | nucOX [5, 13]: −0.098 | mitoOX [6, 13]: −0.270 | ΔΨm [7, 13]: −0.233 | MTT [8, 13]: −0.544

polymyxin b sulfate
ROS [1, 14]: 0.342 | Viability [2, 14]: 0.819 | cyt c [3, 14]: −0.323 | GE-HTS [4, 14]: −0.382 | nucOX [5, 14]: −0.349 | mitoOX [6, 14]: −0.341 | ΔΨm [7, 14]: 0.738 | MTT [8, 14]: −0.522

pteryxin
ROS (composite Z-score) ([1]; Conc 20 μM): 1.106 | Viability (composite Z-score) ([2]; Conc 20 μM): −0.681 | cyt c (composite Z-score) ([3]; Conc 20 μM): 0.711 | GE-HTS (composite Z-score) ([4]; Conc 20 μM): −0.101 | nucOX (composite Z-score) ([5]; Conc 20 μM): −0.097 | mitoOX (composite Z-score) ([6]; Conc 20 μM): −0.108 | ΔΨm (composite Z-score) ([7]; Conc 20 μM): 0.300 | MTT (composite Z-score) ([8]; Conc 20 μM): −1.515

spiramycin
ROS [1, 10]: 0.379 | Viability [2, 10]: 0.176 | cyt c [3, 10]: 0.216 | GE-HTS [4, 10]: −0.691 | nucOX [5, 10]: −0.867 | mitoOX [6, 10]: −0.204 | ΔΨm [7, 10]: −0.686 | MTT [8, 10]: −0.770

theaflavin monogallate
ROS [1, 13]: −0.820 | Viability [2, 13]: 0.945 | cyt c [3, 13]: 1.252 | GE-HTS [4, 13]: −0.211 | nucOX [5, 13]: −0.017 | mitoOX [6, 13]: −0.612 | ΔΨm [7, 13]: −0.581 | MTT [8, 13]: −0.786

totarol acetate
ROS [1, 10]: 0.452 | Viability [2, 10]: −0.273 | cyt c [3, 10]: 1.207 | GE-HTS [4, 10]: 0.574 | nucOX [5, 10]: 0.830 | mitoOX [6, 10]: −0.125 | ΔΨm [7, 10]: −0.556 | MTT [8, 10]: 0.730

Reference: patent US20090143279A1 (priority 2007, published 2009)
